This note sets out measurements from PubChem BioAssay AID1053200 (The Scripps Research Institute Molecular Screening Center, 2014).

The assay concerns the target Methionine--tRNA ligase, mitochondrial (Homo sapiens) (UniProt Q96GW9). Nature of the assay: human mitochondrial MetRS inhibition, late-stage follow-up, selectivity assay for T. brucei MetRS inhibitor project, biochemical, radioactivity, round 2 (AID 1053200). Conditions: recombinant human mitochondrial MetRS, [3H]Met aminoacylation, stronger effect = higher value.

Calls of active or inactive are those of the source.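 The calls were made as follows: active = inhibition at or above 50% when tested at 10 µM; inactive = inhibition below 50% at 10 µM.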

Chain of Methionine--tRNA ligase, mitochondrial (Homo sapiens) (Q96GW9 whole entry, looked up): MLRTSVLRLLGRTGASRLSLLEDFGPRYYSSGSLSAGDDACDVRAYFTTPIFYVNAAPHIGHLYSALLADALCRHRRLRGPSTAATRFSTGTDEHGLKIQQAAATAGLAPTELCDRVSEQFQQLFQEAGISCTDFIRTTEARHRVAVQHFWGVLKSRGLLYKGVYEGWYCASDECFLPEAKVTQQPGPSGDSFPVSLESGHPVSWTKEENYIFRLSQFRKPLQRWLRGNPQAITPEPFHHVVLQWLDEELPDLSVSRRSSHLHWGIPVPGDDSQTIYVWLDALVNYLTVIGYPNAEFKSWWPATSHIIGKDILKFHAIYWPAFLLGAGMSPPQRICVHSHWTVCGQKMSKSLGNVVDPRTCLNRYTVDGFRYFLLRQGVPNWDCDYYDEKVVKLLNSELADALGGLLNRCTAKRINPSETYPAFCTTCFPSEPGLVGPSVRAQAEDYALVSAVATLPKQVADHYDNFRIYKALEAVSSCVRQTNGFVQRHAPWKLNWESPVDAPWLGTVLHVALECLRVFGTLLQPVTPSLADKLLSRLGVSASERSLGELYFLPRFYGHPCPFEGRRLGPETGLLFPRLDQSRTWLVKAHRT

Regarding `CCN(CC)C(=O)C(=O)c1cn(CC(=O)Nc2cccc(C(F)(F)F)c2)c2cc(OC)ccc12`, the inhibition (as a rule, the drop in the measured response relative to a control, in per cent) was -1.37% (inactive) (at 10 µM) and -8.82% (inhibition, at 1 µM).

As to `CCN(CC)C(=O)C(=O)c1cn(CC(=O)Nc2cc(Cl)cc(C(F)(F)F)c2)c2ccccc12`, the inhibition by setting is: (at 10 µM) 17.4% (inactive); (inhibition, at 1 µM) -6.78%.

Take `CCN(CC)C(=O)C(=O)c1cn(CC(=O)Nc2cc(Br)cc(C(F)(F)F)c2)c2ccccc12`: the inhibition is 12.8% (inactive) (at 10 µM) and -17.3% (inhibition, at 1 µM).

In the case of `CCN(CC)C(=O)C(=O)c1cn(CC(=O)Nc2cc(C(F)(F)F)cc(C(F)(F)F)c2)c2ccccc12`, the inhibition is 9.77% (inactive) (at 10 µM) and -3.97% (inhibition, at 1 µM).

In the case of `CCN(CC)C(=O)C(=O)c1cn(CC(=O)Nc2cc(C)cc(C(F)(F)F)c2)c2ccccc12`, the inhibition runs as follows: (at 10 µM) 20.9% (inactive); (inhibition, at 1 µM) -1.02%.

With `CCN(CC)C(=O)C(=O)c1cn(CC(=O)Nc2cc(Oc3ccccc3)cc(C(F)(F)F)c2)c2ccccc12`, the inhibition (at 10 µM) is 21.1% (inactive) and the inhibition (inhibition, at 1 µM) was -2.76%.
